In ChEMBL document CHEMBL1157697, “Novel ester and acid derivatives of the 1,5-diarylpyrrole scaffold as anti-inflammatory and analgesic agents. Synthesis and in vitro and in vivo biological evaluation” (J Med Chem, 2010):
Each block holds one compound with its values, some of them ahead of it. Active and inactive are the calls of the source. The rule behind the calls is not given here.

Tests used:
Rattus norvegicus [1] = assay: Antiinflammatory activity against carrageenan-induced paw edema rat inflammatory model assessed as suppression of paw edema at 20 mg/kg, po after 60 mins; format: functional
[2] = Metabolic stability in human liver microsomes at 0.1 uM; format: ADME, Microsome; conditions: read-out: Stability
Rattus norvegicus [3] = assay: Antiinflammatory activity against carrageenan-induced paw edema rat inflammatory model assessed as paw pressure at 20 mg/kg, po after 60 mins; format: functional
[4] = target: T1, Prostaglandin G/H synthase 1 (Mus musculus, UniProt P22437)
T1 sequence (P22437 whole entry): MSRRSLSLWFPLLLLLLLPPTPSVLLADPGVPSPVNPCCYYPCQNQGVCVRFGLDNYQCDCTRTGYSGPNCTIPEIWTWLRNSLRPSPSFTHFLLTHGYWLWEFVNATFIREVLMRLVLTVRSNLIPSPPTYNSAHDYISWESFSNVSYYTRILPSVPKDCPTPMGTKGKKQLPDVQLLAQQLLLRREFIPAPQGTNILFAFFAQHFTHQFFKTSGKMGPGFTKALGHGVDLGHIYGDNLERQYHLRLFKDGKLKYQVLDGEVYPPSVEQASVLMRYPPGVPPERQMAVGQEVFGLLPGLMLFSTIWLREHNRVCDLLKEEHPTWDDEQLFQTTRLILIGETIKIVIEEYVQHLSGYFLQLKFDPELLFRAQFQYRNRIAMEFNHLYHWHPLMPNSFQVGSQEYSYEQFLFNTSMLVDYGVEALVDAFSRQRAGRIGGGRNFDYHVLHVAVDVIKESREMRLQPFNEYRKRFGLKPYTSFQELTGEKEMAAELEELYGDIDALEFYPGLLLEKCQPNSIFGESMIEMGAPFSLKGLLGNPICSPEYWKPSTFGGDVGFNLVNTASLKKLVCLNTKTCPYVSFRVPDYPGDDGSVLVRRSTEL
Description: Inhibition of COX1-dependent PGE2 production in LPS-stimulated mouse J774 cells by RIA

Rattus norvegicus [5] = assay: Antiinflammatory activity against carrageenan-induced paw edema rat inflammatory model assessed as paw pressure at 20 mg/kg, po after 120 mins; format: functional
Mus musculus [6] = species on record: Mus musculus; assay: Selectivity index, ratio of IC50 for mouse COX1 to IC50 for mouse COX2
Rattus norvegicus [7] = assay: Antiinflammatory activity against carrageenan-induced paw edema rat inflammatory model assessed as paw pressure at 20 mg/kg, po after 30 mins; format: functional
Rattus norvegicus [8] = assay: Antiinflammatory activity against carrageenan-induced paw edema rat inflammatory model assessed as paw volume at 20 mg/kg, po after 60 mins; format: functional
Mus musculus [9] = assay: Analgesic activity against acetic acid-induced mouse abdominal constriction assessed as writhing at 20 mg/kg, po; conditions: Abdomen
[10] = target: T2, Prostaglandin G/H synthase 2 (Mus musculus, UniProt Q05769)
T2 sequence (Q05769 whole entry): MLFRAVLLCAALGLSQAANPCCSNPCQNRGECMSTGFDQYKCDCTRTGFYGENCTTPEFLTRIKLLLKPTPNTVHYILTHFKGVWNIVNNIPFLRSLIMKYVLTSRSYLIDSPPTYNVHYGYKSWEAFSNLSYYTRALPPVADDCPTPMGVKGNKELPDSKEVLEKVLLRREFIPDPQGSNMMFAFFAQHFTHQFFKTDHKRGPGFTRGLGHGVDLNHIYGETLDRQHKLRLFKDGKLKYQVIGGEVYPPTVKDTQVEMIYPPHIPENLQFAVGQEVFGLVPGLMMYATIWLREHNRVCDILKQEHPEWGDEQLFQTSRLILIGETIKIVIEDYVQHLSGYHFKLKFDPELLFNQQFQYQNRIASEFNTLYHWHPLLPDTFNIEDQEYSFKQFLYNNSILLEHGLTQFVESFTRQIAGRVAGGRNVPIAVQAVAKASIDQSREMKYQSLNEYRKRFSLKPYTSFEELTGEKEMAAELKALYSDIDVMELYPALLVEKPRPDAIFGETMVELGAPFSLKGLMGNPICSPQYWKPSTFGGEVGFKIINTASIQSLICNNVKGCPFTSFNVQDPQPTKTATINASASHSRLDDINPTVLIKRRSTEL
Description: Inhibition of COX2-dependent PGE2 production in LPS-stimulated mouse J774 cells by RIA

Mus musculus [11] = assay: Analgesic activity against acetic acid-induced mouse abdominal constriction assessed as writhing at 10 mg/kg, po; conditions: Abdomen
[12] = Metabolic stability in human liver microsomes at 10 uM; format: ADME, Microsome; conditions: read-out: Stability
[13] = target: T3, Prostaglandin G/H synthase 2 (Homo sapiens, UniProt P35354); assay: Inhibition of COX2 in human whole blood assessed as inhibition of LPS-induced PGE2 production by RIA; format: tissue-based
T3 sequence (P35354 whole entry): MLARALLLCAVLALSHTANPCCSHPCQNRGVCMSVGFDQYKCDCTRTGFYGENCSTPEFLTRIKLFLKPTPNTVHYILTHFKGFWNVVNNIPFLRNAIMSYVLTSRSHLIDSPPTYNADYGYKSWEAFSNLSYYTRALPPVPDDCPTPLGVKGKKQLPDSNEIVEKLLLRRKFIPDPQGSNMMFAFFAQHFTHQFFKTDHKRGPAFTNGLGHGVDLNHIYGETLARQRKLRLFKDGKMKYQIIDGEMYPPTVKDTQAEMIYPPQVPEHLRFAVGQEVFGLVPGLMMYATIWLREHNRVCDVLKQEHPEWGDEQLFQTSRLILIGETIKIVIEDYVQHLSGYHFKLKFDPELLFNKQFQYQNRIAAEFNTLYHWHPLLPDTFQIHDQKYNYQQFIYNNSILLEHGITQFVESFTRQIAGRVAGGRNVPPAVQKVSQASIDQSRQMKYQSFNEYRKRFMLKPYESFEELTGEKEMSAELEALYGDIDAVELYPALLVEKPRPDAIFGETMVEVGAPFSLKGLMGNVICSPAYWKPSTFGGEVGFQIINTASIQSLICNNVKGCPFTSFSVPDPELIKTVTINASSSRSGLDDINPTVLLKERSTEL

[14] = target: Prostaglandin G/H synthase 1 (Homo sapiens, UniProt P23219); assay: Inhibition of COX1 in human whole blood assessed as thromboxane B2 production by RIA; format: tissue-based
Mus musculus [15] = assay: Analgesic activity against acetic acid-induced po dosed mouse abdominal constriction assessed as writhing; conditions: Abdomen
Rattus norvegicus [16] = species on record: Rattus norvegicus; assay: Analgesic activity against zymosan-induced hyperalgesia in rat assessed maximum effect measured up to 2 hrs
Rattus norvegicus [17] = species on record: Rattus norvegicus; assay: Analgesic activity against zymosan-induced hyperalgesia in rat assessed maximum effect measured up to 6 hrs
Rattus norvegicus [18] = assay: Antiinflammatory activity against carrageenan-induced paw edema rat inflammatory model assessed as paw volume at 10 mg/kg, po after 60 mins

Chain of Prostaglandin G/H synthase 1 (Homo sapiens, UniProt P23219) (P23219 whole entry): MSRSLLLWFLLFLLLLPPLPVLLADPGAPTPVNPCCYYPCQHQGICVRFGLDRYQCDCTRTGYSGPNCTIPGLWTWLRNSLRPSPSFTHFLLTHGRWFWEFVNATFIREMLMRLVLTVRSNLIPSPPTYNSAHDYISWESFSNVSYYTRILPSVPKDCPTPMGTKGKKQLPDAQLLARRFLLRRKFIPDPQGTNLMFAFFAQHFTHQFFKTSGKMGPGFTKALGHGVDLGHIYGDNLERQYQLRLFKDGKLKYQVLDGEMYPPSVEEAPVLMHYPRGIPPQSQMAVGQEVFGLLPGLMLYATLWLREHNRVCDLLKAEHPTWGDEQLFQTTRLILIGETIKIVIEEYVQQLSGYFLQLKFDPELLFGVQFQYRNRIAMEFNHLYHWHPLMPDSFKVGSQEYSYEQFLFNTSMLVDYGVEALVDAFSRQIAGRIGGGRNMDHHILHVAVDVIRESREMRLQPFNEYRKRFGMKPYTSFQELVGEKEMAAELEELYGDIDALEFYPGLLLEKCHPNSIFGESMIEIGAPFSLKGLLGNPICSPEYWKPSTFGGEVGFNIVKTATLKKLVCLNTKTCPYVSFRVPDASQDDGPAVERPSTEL

Structure (SMILES): CCCCOC(=O)Cc1cc(-c2ccc(S(C)(=O)=O)cc2)n(-c2ccc(OC)cc2)c1C
Activity (Rattus norvegicus [1]): 89.1%
remaining at 0.1 µM [2]: 5%
Activity (Rattus norvegicus [3]): 51.4 g
IC50 [4]: > 100000 nM
Activity (Rattus norvegicus [5]): 50.8 g
Ratio IC50 (Mus musculus [6]): > 2600
Activity (Rattus norvegicus [7]): 53.4 g
Activity (Rattus norvegicus [8]): 1.45 mL
Activity (Mus musculus [9]): Active
IC50 [10]: 38 nM
Activity (Mus musculus [11]): Active
remaining at 10 µM [12]: 2%

Structure (SMILES): Cc1c(CC(=O)O)cc(-c2ccc(S(C)(=O)=O)cc2)n1-c1ccc(F)c(F)c1
Activity (Rattus norvegicus [1]): 90.9%
remaining at 0.1 µM [2]: 100%
Activity (Rattus norvegicus [3]): 54.1 g
IC50 [4]: 10000 nM
Activity (Rattus norvegicus [5]): 48.6 g
Ratio IC50 (Mus musculus [6]): 38
Activity (Rattus norvegicus [7]): 58.3 g
Activity (Rattus norvegicus [8]): 1.42 mL
Activity (Mus musculus [9]): Active
IC50 [10]: 260 nM
remaining at 10 µM [12]: 100%

Structure (SMILES): CCCCOC(=O)Cc1cc(-c2ccc(S(C)(=O)=O)cc2)n(-c2ccc(F)c(F)c2)c1C
Activity (Rattus norvegicus [1]): 73.6%
remaining at 0.1 µM [2]: 2%
Activity (Rattus norvegicus [3]): 59.2 g
IC50 [4]: > 100000 nM
Activity (Rattus norvegicus [5]): 56.6 g
Ratio IC50 (Mus musculus [6]): > 3300
Activity (Rattus norvegicus [7]): 52.7 g
Activity (Rattus norvegicus [8]): 1.52 mL
Activity (Mus musculus [9]): Active
IC50 [10]: 30 nM
remaining at 10 µM [12]: 15%

Structure (SMILES): CCCCOC(=O)Cc1cc(-c2ccc(S(C)(=O)=O)cc2)n(-c2ccccc2)c1C
Activity (Rattus norvegicus [1]): 66.3%
remaining at 0.1 µM [2]: 7%
Activity (Rattus norvegicus [3]): 46.3 g
IC50 [4]: > 100000 nM
Activity (Rattus norvegicus [5]): 42.6 g
Ratio IC50 (Mus musculus [6]): > 7100
Activity (Rattus norvegicus [7]): 52.5 g
Activity (Rattus norvegicus [8]): 1.68 mL
IC50 [10]: 14 nM
remaining at 10 µM [12]: 3%

Structure (SMILES): Cc1c(CC(=O)O)cc(-c2ccc(S(C)(=O)=O)cc2)n1-c1cccc(F)c1
Activity (Rattus norvegicus [1]): 93.6%
remaining at 0.1 µM [2]: 100%
Activity (Rattus norvegicus [3]): 55.2 g
IC50 [4]: > 100000 nM
Activity (Rattus norvegicus [5]): 43.1 g
Ratio IC50 (Mus musculus [6]): > 3500
IC50 [13]: 17000 nM
IC50 [14]: 125000 nM
Activity (Rattus norvegicus [7]): 54.8 g
Activity (Rattus norvegicus [8]): 1.35 mL
Activity (Mus musculus [9]): Active
IC50 [10]: 28 nM
Activity (Mus musculus [15]): Dose-dependent effect
remaining at 10 µM [12]: 100%

Structure (SMILES): Cc1c(CC(=O)OC(C)C)cc(-c2ccc(S(C)(=O)=O)cc2)n1-c1ccc(F)c(F)c1
Activity (Rattus norvegicus [1]): 89%
remaining at 0.1 µM [2]: 0%
Activity (Rattus norvegicus [3]): 52.3 g
IC50 [4]: > 100000 nM
Activity (Rattus norvegicus [5]): 58.3 g
Ratio IC50 (Mus musculus [6]): > 4700
Activity (Rattus norvegicus [7]): 64.8 g
Activity (Rattus norvegicus [8]): 1.39 mL
IC50 [10]: 21 nM
remaining at 10 µM [12]: 13%

Structure (SMILES): Cc1ccc(-c2cc(C(F)(F)F)nn2-c2ccc(S(N)(=O)=O)cc2)cc1 [CELECOXIB]
Activity (Rattus norvegicus [1]): 95.5%
Activity (Rattus norvegicus [16]): 30%
Activity (Rattus norvegicus [17]): 35%
Activity (Rattus norvegicus [18]): 1.33 mL
Activity (Rattus norvegicus [3]): 58.2 g
Activity (Rattus norvegicus [5]): 55.2 g
Activity (Rattus norvegicus [7]): 56.5 g

Structure (SMILES): Cc1c(CC(=O)OC(C)C)cc(-c2ccc(S(C)(=O)=O)cc2)n1-c1cccc(F)c1
Activity (Rattus norvegicus [1]): 87.2%
remaining at 0.1 µM [2]: 0%
Activity (Rattus norvegicus [3]): 57.9 g
IC50 [4]: > 100000 nM
Activity (Rattus norvegicus [5]): 45.2 g
Ratio IC50 (Mus musculus [6]): > 2300
IC50 [13]: 2000 nM
IC50 [14]: 24000 nM
Activity (Rattus norvegicus [7]): 59.5 g
Activity (Rattus norvegicus [8]): 1.31 mL
IC50 [10]: 43 nM
Activity (Mus musculus [15]): Dose-dependent effect
remaining at 10 µM [12]: 1%

Structure (SMILES): COc1ccc(-n2c(-c3ccc(S(C)(=O)=O)cc3)cc(CC(=O)O)c2C)cc1
Activity (Rattus norvegicus [1]): 50.9%
remaining at 0.1 µM [2]: 77%
Activity (Rattus norvegicus [3]): 39.8 g
IC50 [4]: > 100000 nM
Activity (Rattus norvegicus [5]): 36.2 g
Ratio IC50 (Mus musculus [6]): > 580
Activity (Rattus norvegicus [7]): 52.3 g
Activity (Rattus norvegicus [8]): 1.81 mL
IC50 [10]: 170 nM
remaining at 10 µM [12]: 84%

Structure (SMILES): Cc1c(CC(=O)O)cc(-c2ccc(S(C)(=O)=O)cc2)n1-c1ccccc1
Activity (Rattus norvegicus [1]): 42.7%
remaining at 0.1 µM [2]: 94%
Activity (Rattus norvegicus [3]): 51.8 g
Activity (Rattus norvegicus [5]): 41.6 g
Ratio IC50 (Mus musculus [6]): > 100
IC50 [13]: 7000 nM
IC50 [14]: 132000 nM
Activity (Rattus norvegicus [7]): 48.6 g
Activity (Rattus norvegicus [8]): 1.86 mL
remaining at 10 µM [12]: 97%

Structure (SMILES): COc1ccc(-n2c(-c3ccc(S(C)(=O)=O)cc3)cc(CC(=O)OC(C)C)c2C)cc1
Activity (Rattus norvegicus [1]): 77.2%
remaining at 0.1 µM [2]: 7%
Activity (Rattus norvegicus [3]): 56.7 g
IC50 [4]: > 100000 nM
Activity (Rattus norvegicus [5]): 41.7 g
Ratio IC50 (Mus musculus [6]): > 4500
Activity (Rattus norvegicus [7]): 51 g
Activity (Rattus norvegicus [8]): 1.41 mL
IC50 [10]: 22 nM
remaining at 10 µM [12]: 1%

Structure (SMILES): CCCCOC(=O)Cc1cc(-c2ccc(S(C)(=O)=O)cc2)n(-c2cccc(F)c2)c1C
Activity (Rattus norvegicus [1]): 67.2%
remaining at 0.1 µM [2]: 0%
Activity (Rattus norvegicus [3]): 46.9 g
IC50 [4]: > 100000 nM
Activity (Rattus norvegicus [5]): 45.2 g
Ratio IC50 (Mus musculus [6]): > 4100
Activity (Rattus norvegicus [7]): 49.7 g
Activity (Rattus norvegicus [8]): 1.71 mL
IC50 [10]: 24 nM
remaining at 10 µM [12]: 2%

Ratio IC50 (Mus musculus [6]): > 2500
Structure (SMILES): CCOC(=O)Cc1cc(-c2ccc(S(C)(=O)=O)cc2)n(-c2ccccc2)c1C
